Test results taken from patent US4595530A, “Thiodeazapurine derivatives” (Takeda Chemical Industries, Ltd., priority 1983, dated 1986).
In brackets after ≈: the same amount, converted by molar mass.

Key:
[1] = test system: rat liver tRNA-guanine transglycosylase; test: uptake of compound into tRNA ([3H]-guanine labeled tRNA exchange); format: biochemical; conditions: 0.02 OD260 of compound, 37° C., 17 hours, 0.5 unit enzyme
Protocol: [^3 H]-Guanine labeled tRNA^(*^) (8000 cpm), 70 mM of tris hydrochloride, 60 mM of magnesium chloride, 0.5 unit of rat liver tRNA-guanine transglycosylase and 0.02 OD260 of the compound of Example 1 (which appears hereinafter) (100 μl) were incubated at 37° C. for 17 hours. The reaction mixture was applied to a Whatman 3 MM filter paper (Whatman Co., U.S.A.) and washed 3 times with a 5% aqueous solution of trichloroacetic acid and, then, once each with ethanol/ether (1:1) and ether alone. After drying, the uptake of the test compound was determined in a toluenic scintillation fluid.
^(*^) tRNA with the firstletter (base) of its anticodon labeled with [^3 H]guanine.
The uptake of the compound of Example 2 into tRNA was determined in the same manner as Experimental Example 1. The result was 57%.

Meth A tumor cells = test: Meth A tumor growth inhibition in mice; format: in vivo; conditions: BALB/c mouse, s.c. transplant, 100 mg/kg i.p. once daily for 14 days from day 4, tumor weight on 35th day
Protocol: 5×10^4 Meth A tumor cells were subcutaneously transplanted into a BALB/c mouse weighing 20 g and starting on the 4th day after transplantation, a solution of the compound of Example 1 in 0.1 ml of distilled water was intraperitoneally injected into the mouse once daily in a dose of 100 mg/kg for 14 consecutive days. On the 35th day after transplantation, the tumor node was enucleated and weighed.

L5178Y mouse tumor cells = test: growth inhibition of cultured L5178Y cells; format: cell-based; conditions: 72 hours incubation with drug, cell count vs non-treated control, read-out: IC50 (50% growth inhibitory concentration)
Protocol: 1×10^4 L5178Y mouse tumor cells were suspended in 2 ml of a RPMI-1640 medium containing 10% of bovine fetal serum, 20 μM of 2-mercaptoethanol and 100 μg/ml kanamycin (Nissui Pharmaceutical Co., Ltd. Japan), and incubated at 37° C. for 24 hours before addition of the drug. Using the above culture fluid as a diluent, the compound of Example 1 was diluted 1/4-fold in a series of 5 stages, the maximum concentration of the compound in the medium being 200 μg/ml. The dilutions were further incubated for 72 hours, at the end of which time the cells were counted and the IC50 (50% growth inhibitory concentration) was calculated with the count for the non-treated control group being taken as 100%.

uptake of the test compound into tRNA (% of tRNA) [1] [%]	IC50 (L5178Y mouse tumor cells) [µg/mL]	Compound	tumor growth inhibition rate (Meth A tumor cells) [%]
81	22 (≈ 75 µM)	Nc1nc2[nH]cc(CN[C@H]3C=C[C@H](O)[C@@H]3O)c2c(=S)[nH]1 [Example 1, 2-amino-5-[(3S,4R,5S)-4,5-dihydroxycyclopent-1-en-3-ylaminomethy-]pyrrolo[2,3-d]pyrimidine-4-thione]	71
57	–	NCc1c[nH]c2nc(N)[nH]c(=S)c12 [Example 2, 2-amino-5-aminomethylpyrrolo[2,3-d]pyrimidine-4-thione]	–
